Reference: ChEMBL document CHEMBL1201862, “PubChem BioAssay data set” (2004)
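A five-concentration, 48-hour dose response in 96-well plates underlies each endpoint, interpolated linearly between surrounding concentrations. GI50 = concentration required for 50% inhibition of growth.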 The source made the active and inactive calls. No stated cut-off is given here; in the data, active = GI50 up to about 1.1 µM and inactive = higher.

What was measured:
Assay in all cases: growth of human tumour cells (NCI), 48 h
RPMI-8226 = tested on: RPMI-8226
HCT-15 = tested on: HCT-15
LOX IMVI = tested on: LOX IMVI
UO-31 = tested on: UO-31
U-251 = tested on: U-251
SK-MEL-2 = tested on: SK-MEL-2
A549 = tested on: A549
HT-29 = tested on: HT-29
MDA-MB-435 = tested on: MDA-MB-435
MDA-N = tested on: MDA-N
SW-620 = tested on: SW-620
HCC 2998 = tested on: HCC 2998
UACC-257 = tested on: UACC-257
Malme-3M = tested on: Malme-3M
ACHN = tested on: ACHN
MDA-MB-231 = tested on: MDA-MB-231
786-0 = tested on: 786-0
SF-295 = tested on: SF-295
A498 = tested on: A498
NCI-H226 = tested on: NCI-H226

CC(C)(C)N/N=C(\C(=O)Nc1ccc([N+](=O)[O-])cc1[N+](=O)[O-])c1nc2ccc([N+](=O)[O-])cc2nc1O
GI50 (RPMI-8226): 13.2 µM (inactive) | GI50 (HCT-15): 43.4 µM | GI50 (LOX IMVI): 58.7 µM (inactive) | GI50 (UO-31): 82.2 µM (inactive) | GI50 (U-251): > 100 µM (inactive) | GI50 (SK-MEL-2): > 100 µM (inactive) | GI50 (A549): > 100 µM (inactive) | GI50 (HT-29): > 100 µM (inactive) | GI50 (MDA-MB-435): > 100 µM (inactive) | GI50 (MDA-N): > 100 µM (inactive) | GI50 (SW-620): > 100 µM (inactive) | GI50 (HCC 2998): 37.1 µM (inactive) | GI50 (UACC-257): > 100 µM (inactive) | GI50 (Malme-3M): > 100 µM (inactive) | GI50 (ACHN): > 100 µM (inactive) | GI50 (MDA-MB-231): > 100 µM (inactive) | GI50 (786-0): > 100 µM (inactive) | GI50 (SF-295): 31.5 µM (inactive) | GI50 (A498): > 100 µM (inactive) | GI50 (NCI-H226): 23.7 µM (inactive)

CCOC(=O)C#Cc1cccc(C#CC(=O)OCC)c1
GI50 (RPMI-8226): 4.71 µM (inactive) | GI50 (HCT-15): 3.31 µM | GI50 (LOX IMVI): 2.07 µM (inactive) | GI50 (UO-31): 4.51 µM (inactive) | GI50 (U-251): 4.71 µM (inactive) | GI50 (SK-MEL-2): 2.19 µM (inactive) | GI50 (A549): 6.53 µM (inactive) | GI50 (HT-29): 4.81 µM (inactive) | GI50 (MDA-MB-435): 4.59 µM (inactive) | GI50 (MDA-N): 2.32 µM (inactive) | GI50 (SW-620): 5.25 µM (inactive) | GI50 (HCC 2998): 0.624 µM (active) | GI50 (UACC-257): 10.2 µM (inactive) | GI50 (Malme-3M): 5.14 µM (inactive) | GI50 (ACHN): 6.03 µM (inactive) | GI50 (MDA-MB-231): 5.79 µM (inactive) | GI50 (786-0): 4.47 µM (inactive) | GI50 (SF-295): 1.65 µM (inactive) | GI50 (A498): 12.5 µM (inactive) | GI50 (NCI-H226): 6.58 µM (inactive)

NC(=O)NC(CC(=O)O)C(=O)O (stereo not given)
GI50 (RPMI-8226): > 100 µM (inactive) | GI50 (HCT-15): > 100 µM | GI50 (LOX IMVI): > 100 µM (inactive) | GI50 (UO-31): > 100 µM (inactive) | GI50 (U-251): > 100 µM (inactive) | GI50 (SK-MEL-2): > 100 µM (inactive) | GI50 (A549): > 100 µM (inactive) | GI50 (HT-29): > 100 µM (inactive) | GI50 (MDA-MB-435): > 100 µM (inactive) | GI50 (MDA-N): > 100 µM (inactive) | GI50 (SW-620): > 100 µM (inactive) | GI50 (HCC 2998): > 100 µM (inactive) | GI50 (UACC-257): 93.3 µM (inactive) | GI50 (Malme-3M): > 100 µM (inactive) | GI50 (ACHN): > 100 µM (inactive) | GI50 (MDA-MB-231): > 100 µM (inactive) | GI50 (786-0): > 100 µM (inactive) | GI50 (SF-295): > 100 µM (inactive) | GI50 (A498): > 100 µM (inactive) | GI50 (NCI-H226): > 100 µM (inactive)

CC(C)(N)CO[C@H]1C[C@H]2CC[C@@]1(C)C2(C)C
GI50 (RPMI-8226): 15.7 µM (inactive) | GI50 (HCT-15): 19.8 µM | GI50 (LOX IMVI): 17.2 µM (inactive) | GI50 (UO-31): 16.5 µM (inactive) | GI50 (U-251): 18.1 µM (inactive) | GI50 (SK-MEL-2): 18.5 µM (inactive) | GI50 (A549): 38.5 µM (inactive) | GI50 (HT-29): 12.4 µM (inactive) | GI50 (MDA-MB-435): 16.3 µM (inactive) | GI50 (MDA-N): 15.5 µM (inactive) | GI50 (SW-620): 23.7 µM (inactive) | GI50 (HCC 2998): 2.11 µM (inactive) | GI50 (UACC-257): 17.8 µM (inactive) | GI50 (Malme-3M): 18.2 µM (inactive) | GI50 (ACHN): 34.9 µM (inactive) | GI50 (MDA-MB-231): 17.8 µM (inactive) | GI50 (786-0): 16.2 µM (inactive) | GI50 (SF-295): 19.9 µM (inactive) | GI50 (A498): 27.2 µM (inactive) | GI50 (NCI-H226): 24.7 µM (inactive)

O=C1C=CC(=O)C(CNc2ccc(C(=O)OC34CC5CC(CC(C5)C3)C4)cc2)=C1Br
GI50 (RPMI-8226): 5.6 µM (inactive) | GI50 (HCT-15): 5.19 µM | GI50 (LOX IMVI): 9.48 µM (inactive) | GI50 (UO-31): 6.75 µM (inactive) | GI50 (U-251): 4 µM (inactive) | GI50 (SK-MEL-2): 15.4 µM (inactive) | GI50 (A549): 13.3 µM (inactive) | GI50 (HT-29): 5.01 µM (inactive) | GI50 (MDA-MB-435): 14.7 µM (inactive) | GI50 (MDA-N): 15.6 µM (inactive) | GI50 (SW-620): 18.2 µM (inactive) | GI50 (HCC 2998): 12.4 µM (inactive) | GI50 (UACC-257): 13.5 µM (inactive) | GI50 (Malme-3M): 4.9 µM (inactive) | GI50 (ACHN): 14.6 µM (inactive) | GI50 (MDA-MB-231): 10.2 µM (inactive) | GI50 (786-0): 13.2 µM (inactive) | GI50 (SF-295): 14.1 µM (inactive) | GI50 (A498): 17.9 µM (inactive) | GI50 (NCI-H226): 16.7 µM (inactive)

COC(=O)C1=C(O)C(C(=O)OC)[C@]2(O)[C@H](C(=O)OC)[C@H]1C[C@@H](c1c(Cl)cccc1Cl)[C@H]2C(=O)OC (stereo not given in full)
GI50 (RPMI-8226): 1.51 µM (inactive) | GI50 (HCT-15): 1.74 µM | GI50 (LOX IMVI): 1.87 µM (inactive) | GI50 (UO-31): 1.65 µM (inactive) | GI50 (U-251): 1.32 µM (inactive) | GI50 (SK-MEL-2): 1.49 µM (inactive) | GI50 (A549): 2.23 µM (inactive) | GI50 (HT-29): 2.33 µM (inactive) | GI50 (MDA-MB-435): 1.33 µM (inactive) | GI50 (MDA-N): 1.37 µM (inactive) | GI50 (SW-620): 2.55 µM (inactive) | GI50 (HCC 2998): 1.66 µM (inactive) | GI50 (UACC-257): 2.08 µM (inactive) | GI50 (Malme-3M): 2.07 µM (inactive) | GI50 (ACHN): 2.19 µM (inactive) | GI50 (MDA-MB-231): 2.96 µM (inactive) | GI50 (786-0): 1.73 µM (inactive) | GI50 (SF-295): 2.67 µM (inactive) | GI50 (A498): 2 µM (inactive) | GI50 (NCI-H226): 2.14 µM (inactive)

CCCC(=O)Nc1cn(COC)c(C(=O)N2C[C@@H]3C[C@]34C2=CC(=O)c2[nH]cc(C)c24)n1
GI50 (RPMI-8226): 10.9 µM (inactive) | GI50 (HCT-15): 13.7 µM | GI50 (LOX IMVI): 6.31 µM (inactive) | GI50 (UO-31): 12.3 µM (inactive) | GI50 (U-251): 12.9 µM (inactive) | GI50 (SK-MEL-2): 8.47 µM (inactive) | GI50 (A549): 10.8 µM (inactive) | GI50 (HT-29): 7.76 µM (inactive) | GI50 (MDA-MB-435): 9.23 µM (inactive) | GI50 (MDA-N): 9.29 µM (inactive) | GI50 (SW-620): 5.58 µM (inactive) | GI50 (HCC 2998): 5.31 µM (inactive) | GI50 (UACC-257): 8.13 µM (inactive) | GI50 (Malme-3M): 1.72 µM (inactive) | GI50 (ACHN): 3.26 µM (inactive) | GI50 (MDA-MB-231): 8.47 µM (inactive) | GI50 (786-0): 5.15 µM (inactive) | GI50 (SF-295): 15.6 µM (inactive) | GI50 (A498): 9.48 µM (inactive) | GI50 (NCI-H226): 10.5 µM (inactive)

O=C(O)c1c(-c2ccccc2)c(=O)[nH]c2ccccc12
GI50 (RPMI-8226): > 100 µM (inactive) | GI50 (HCT-15): > 100 µM | GI50 (LOX IMVI): > 100 µM (inactive) | GI50 (UO-31): > 100 µM (inactive) | GI50 (U-251): > 100 µM (inactive) | GI50 (SK-MEL-2): > 100 µM (inactive) | GI50 (A549): > 100 µM (inactive) | GI50 (HT-29): > 100 µM (inactive) | GI50 (MDA-MB-435): > 100 µM (inactive) | GI50 (MDA-N): > 100 µM (inactive) | GI50 (SW-620): > 100 µM (inactive) | GI50 (HCC 2998): > 100 µM (inactive) | GI50 (UACC-257): > 100 µM (inactive) | GI50 (Malme-3M): > 100 µM (inactive) | GI50 (ACHN): > 100 µM (inactive) | GI50 (MDA-MB-231): > 100 µM (inactive) | GI50 (786-0): > 100 µM (inactive) | GI50 (SF-295): > 100 µM (inactive) | GI50 (A498): > 100 µM (inactive) | GI50 (NCI-H226): > 100 µM (inactive)

COC(=O)CCC(=O)NC1=C(Nc2ccc(OC)cc2)C(=O)c2ccccc2C1=O
GI50 (RPMI-8226): 15.7 µM (inactive) | GI50 (HCT-15): 7.18 µM | GI50 (LOX IMVI): 4.15 µM (inactive) | GI50 (UO-31): 15.4 µM (inactive) | GI50 (U-251): 16.5 µM (inactive) | GI50 (SK-MEL-2): 6.3 µM (inactive) | GI50 (A549): 14 µM (inactive) | GI50 (HT-29): 12.6 µM (inactive) | GI50 (MDA-MB-435): 2 µM (inactive) | GI50 (MDA-N): 1.81 µM (inactive) | GI50 (SW-620): 15.3 µM (inactive) | GI50 (HCC 2998): 20.1 µM (inactive) | GI50 (UACC-257): 4.61 µM (inactive) | GI50 (Malme-3M): 2.05 µM (inactive) | GI50 (ACHN): 15.4 µM (inactive) | GI50 (MDA-MB-231): 10.7 µM (inactive) | GI50 (786-0): 17.9 µM (inactive) | GI50 (SF-295): 13 µM (inactive) | GI50 (A498): 19.2 µM (inactive) | GI50 (NCI-H226): 17.7 µM (inactive)
